The results in this text go back to ChEMBL document CHEMBL5380798, “Novel Strategy To Inhibit Transthyretin Amyloidosis via the Synergetic Effect of Chemoselective Acylation and Noncovalent Inhibitor Release” (J Med Chem, 2023).

Assay [1] concerns Transthyretin (Homo sapiens), P02766 [V50M]. Put plainly: Inhibition of recombinant Transthyretin V30M mutant (unknown origin) expressed in Escherichia coli expression system assessed as acid mediated fibril formation at 3.6 uM preincubated for 2 hrs followed by addition of acetate buffer solution and measured after 72 hrs by UV-vis spectrophotometry relative to control. The conditions noted are these: time 74.0 hrs, values are per cent of control.

Assay [2] shares this test system. The assay can be described thus: Inhibition of recombinant Transthyretin V30M mutant (unknown origin) expressed in Escherichia coli expression system assessed as acid mediated fibril formation at 1.8 uM preincubated for 2 hrs followed by addition of acetate buffer solution and measured after 72 hrs by UV-vis spectrophotometry relative to control. The note with it: time 74.0 hrs, values are per cent of control.

Assay [3] shares this test system. Put plainly: Inhibition of recombinant Transthyretin V30M mutant (unknown origin) assessed as acid mediated fibril formation at 7.2 uM relative to control.
Assay [4] deals with T1, Transthyretin (Homo sapiens, UniProt P02766). The assay can be described thus: Inhibition of recombinant wild-type Transthyretin (unknown origin) expressed in Escherichia coli expression system assessed as acid mediated fibril formation at 3.6 uM preincubated for 2 hrs followed by addition of acetate buffer solution and measured after 72 hrs by UV-vis spectrophotometry relative to control. The conditions noted are these: time 74.0 hrs, values are per cent of control.

For assay [5], the target named is T1, Transthyretin. The assay can be described thus: Inhibition of recombinant wild-type Transthyretin (unknown origin) expressed in Escherichia coli expression system assessed as acid mediated fibril formation at 1.8 uM preincubated for 2 hrs followed by addition of acetate buffer solution and measured after 72 hrs by UV-vis spectrophotometry relative to control. The conditions noted are these: time 74.0 hrs, values are per cent of control.

Assay [6] deals with T1, Transthyretin.
Description: Covalent inhibition of urea-induced Transthyretin denaturation in human plasma preincubated for 1 hr followed by urea addition by Western blot analysis
Assay [7] concerns the target T1, Transthyretin. The assay can be described thus: Inhibition of recombinant wild-type Transthyretin (unknown origin) expressed in Escherichia coli expression system assessed as acid mediated fibril formation at 1.8 uM measured after 120 hrs by UV-vis spectrophotometry relative to control.

Broadly, the inhibition is the relative decrease from the control value, in per cent. Consider `Cc1n[nH]c(C)c1/C=C/c1cc(Br)c(O)c(Br)c1`, for which the response, % of control is 11.1% in assay [1], 41.7% in assay [2], 9.2% in assay [4] and 17.3% in assay [5]. Besides, the inhibition in assay [3] came to 39%.
Turning to `CCC(C)C(=O)Oc1c(Br)cc(/C=C/c2c(C)n[nH]c2C)cc1Br` (stereo unspecified), the response, % of control in assay [1] was found to be 2.9%; in assay [2], 18%; in assay [4], 0.3%; in assay [5], 2.2%.
As a reminder, the IC50 is the concentration at which inhibition is half-maximal. Higher therefore signals weaker potency in that assay. `Cc1n[nH]c(C)c1/C=C/c1cc(Br)c(OC(=O)c2c(F)cccc2F)c(Br)c1`: the response, % of control is 3.5% in assay [1], 14.8% in assay [2], 0.3% in assay [4] and 1.2% in assay [5]. For the same molecule, the IC50 in assay [6] is 570 nM. Moreover, the inhibition in assay [7] is below 5%.
`Cc1n[nH]c(C)c1/C=C/c1cc(Br)c(OC(=O)c2c(F)cc(F)cc2F)c(Br)c1`: the response, % of control in assay [1] worked out at 3%; in assay [2], 13.8%; in assay [4], 0.3%; in assay [5], 0.8%. The molecule further registered an IC50 in assay [6] of 470 nM. Moreover, the inhibition in assay [7] is below 5%.
As for `Cc1n[nH]c(C)c1/C=C/c1cc(Br)c(OC(=O)c2ccc(F)cc2)c(Br)c1`, the response, % of control is 3.9% in assay [1], 15.7% in assay [2], 0.2% in assay [4] and 5.7% in assay [5]. In assay [6], this molecule gave an IC50 of 450 nM. Besides, the inhibition in assay [7] was below 5%.
In the case of `CCCC(=O)Oc1c(Br)cc(/C=C/c2c(C)n[nH]c2C)cc1Br`, the response, % of control in assay [1] came out at 6.6%; in assay [2], 23.5%; in assay [4], 0.3%; in assay [5], 2.7%.
For `O=C(O)c1ccc2nc(-c3cc(Cl)cc(Cl)c3)oc2c1`, the response, % of control amounted to 21% in assay [1], 53.8% in assay [2], 11.1% in assay [4] and 40.9% in assay [5]. Moreover, the inhibition in assay [7] was determined as 46%.
